The values below come from ChEMBL document CHEMBL2407046, “Synthesis of 2α-heteroarylalkyl active vitamin d3 with therapeutic effect on enhancing bone mineral density in vivo” (ACS Med Chem Lett, 2013).

One series addresses T1, Vitamin D3 receptor (Homo sapiens, UniProt P11473).
T1 sequence (P11473 whole entry): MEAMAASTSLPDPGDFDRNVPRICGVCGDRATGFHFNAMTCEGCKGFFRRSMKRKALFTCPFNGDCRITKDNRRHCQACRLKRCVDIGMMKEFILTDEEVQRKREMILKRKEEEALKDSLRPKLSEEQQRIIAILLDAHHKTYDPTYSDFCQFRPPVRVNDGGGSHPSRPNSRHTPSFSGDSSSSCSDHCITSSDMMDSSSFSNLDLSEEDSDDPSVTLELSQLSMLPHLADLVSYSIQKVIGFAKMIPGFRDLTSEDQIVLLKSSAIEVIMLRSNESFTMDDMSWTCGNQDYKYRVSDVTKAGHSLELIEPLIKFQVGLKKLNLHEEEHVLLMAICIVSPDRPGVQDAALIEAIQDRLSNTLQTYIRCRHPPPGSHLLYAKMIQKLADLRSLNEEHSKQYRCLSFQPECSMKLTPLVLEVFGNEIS
Put plainly: Transactivation of VDR-mediated osteocalcin promoter in human HOS/SF cells after 24 hrs by luciferase reporter gene assay. It is filed as cell-based. (Reporter assays use an easily measured gene product as a stand-in for the process of interest.)

The subject of series [1] is Rattus norvegicus. Put plainly: Antiosteoporotic activity in ovariectomized Sprague-Dawley rat osteoporosis model assessed as increase in bone mineral density in spine at 0.007 mg/kg/day administered 5 times a week for 4 weeks measured 24 hrs post last dose by dual X-ray absorption meter (reference value: 0.209 +/- 0.011 g/cm'2). It is filed as functional.
In series [2] the test system is Rattus norvegicus. Put plainly: Antiosteoporotic activity in ovariectomized Sprague-Dawley rat osteoporosis model assessed as increase in bone mineral density in spine at 0.02 mg/kg/day administered 5 times a week for 4 weeks measured 24 hrs post last dose by dual X-ray absorption meter (reference value: 0.209 +/- 0.011 g/cm'2). It is filed as functional.
The subject of series [3] is Rattus norvegicus. Put plainly: Toxicity in ovariectomized Sprague-Dawley rat osteoporosis model assessed as increase in serum Ca level at 0.02 mg/kg/day administered 5 times a week for 4 weeks measured 24 hrs post last dose (reference value: 9.25 +/- 0.11 mg/dL). It is filed as organism-based. The note with it: in vivo.
The subject of series [4] is Rattus norvegicus. The experiment in a line: Toxicity in ovariectomized Sprague-Dawley rat osteoporosis model assessed as increase in serum Ca level at 0.007 mg/kg/day administered 5 times a week for 4 weeks measured 24 hrs post last dose (reference value: 9.25 +/- 0.11 mg/dL). It is filed as organism-based. The note with it: in vivo.
In series [5] the test system is Rattus norvegicus. Put plainly: Toxicity in ovariectomized Sprague-Dawley rat osteoporosis model assessed as increase in serum Ca level at 0.025 mg/kg/day administered 5 times a week for 4 weeks measured 24 hrs post last dose (reference value: 9.14 +/- 0.24 mg/dL). It counts as organism-based. The settings on record: in vivo.
Series [6] concerns Rattus norvegicus. Put plainly: Antiosteoporotic activity in ovariectomized Sprague-Dawley rat osteoporosis model assessed as increase in bone mineral density in spine at 0.1 mg/kg/day administered 5 times a week for 4 weeks measured 24 hrs post last dose by dual X-ray absorption meter (reference value: 0.209 +/- 0.019 g/cm'2). It counts as functional.
Series [7] deals with Rattus norvegicus. Put plainly: Toxicity in ovariectomized Sprague-Dawley rat osteoporosis model assessed as increase in serum Ca level at 0.1 mg/kg/day administered 5 times a week for 4 weeks measured 24 hrs post last dose (reference value: 9.14 +/- 0.24 mg/dL). It is filed as organism-based. The settings on record: in vivo.
Series [8] relates to Rattus norvegicus. The experiment in a line: Antiosteoporotic activity in ovariectomized Sprague-Dawley rat osteoporosis model assessed as increase in bone mineral density in spine at 0.025 mg/kg/day administered 5 times a week for 4 weeks measured 24 hrs post last dose by dual X-ray absorption meter (reference value: 0.209 +/- 0.019 g/cm'2). It is filed as functional.

`C=C1/C(=C\C=C2/CCC[C@]3(C)[C@@H]([C@H](C)CCCC(C)(C)O)CC[C@@H]23)C[C@@H](O)[C@H](CCn2ccnn2)[C@@H]1O`: the EC50 (usually the concentration that produces a half-maximal response) on Vitamin D3 receptor was found to be 210 pM.
Regarding `C=C1/C(=C\C=C2/CCC[C@]3(C)[C@@H]([C@H](C)CCCC(C)(C)O)CC[C@@H]23)C[C@@H](O)[C@H](CCn2ccnc2)[C@@H]1O`, the EC50 on Vitamin D3 receptor was determined as 680 pM.
`C=C1/C(=C\C=C2/CCC[C@]3(C)[C@@H]([C@H](C)CCCC(C)(C)O)CC[C@@H]23)C[C@@H](O)[C@H](CCn2ncnn2)[C@@H]1O`: the Activity in the series on Rattus norvegicus [1] came out at 0.214 g/cm2; in the series with Rattus norvegicus [2] it was 0.223 g/cm2; in the series on Rattus norvegicus [3], 9.66 mg/dL; in the series with Rattus norvegicus [4], 9.41 mg/dL. Besides, the EC50 on Vitamin D3 receptor was determined as 10 pM.
`C=C1/C(=C\C=C2/CCC[C@]3(C)[C@@H]([C@H](C)CCCC(C)(C)O)CC[C@@H]23)C[C@@H](O)[C@H](CCn2nccn2)[C@@H]1O`: the EC50 at Vitamin D3 receptor is 44 pM.
The same measure, in the same setting: under `C=C1/C(=C\C=C2/CCC[C@]3(C)[C@@H]([C@H](C)CCCC(C)(C)O)CC[C@@H]23)C[C@@H](O)[C@H](CCn2cnnn2)[C@@H]1O` stands 290 pM.
Consider `C=C1/C(=C\C=C2/CCC[C@]3(C)[C@@H]([C@H](C)CCCC(C)(C)O)CC[C@@H]23)C[C@@H](O)C[C@@H]1O` [CALCITRIOL], for which the Activity in the series with Rattus norvegicus [5] worked out at 10.14 mg/dL; in the series on Rattus norvegicus [6], 0.228 g/cm2; with Rattus norvegicus [7], 10.35 mg/dL; in the series on Rattus norvegicus [8] it was 0.218 g/cm2.
Consider `C=C1/C(=C\C=C2/CCC[C@]3(C)[C@@H]([C@H](C)CCCC(C)(C)O)CC[C@@H]23)C[C@@H](O)[C@H](CCn2cncn2)[C@@H]1O`, for which, at Vitamin D3 receptor, the EC50 turned out to be 150 pM.
